According to US20220087996A1, “Histone acetylase p300 inhibitor and use thereof” (HINOVA PHARMACEUTICALS INC., priority 2018, published 2022):
Read-outs that look alike come from different tables or passages of the source.

Key:
LNCAP = experiment: Inhibition of proliferation of LNCAP cells; format: cell-based; settings: Homo sapiens; Prostate cancer cell line LNCAP; read-out: IC50 against LNCAP
Procedure: (§1) 1) CWR22RV1 cells were subcultured in cell culture medium, and the cells in good growth condition were seeded in a 96-well plate, 80 μL for each well, and the cell number in each well was 1500. The plate was incubated overnight in a 37° C., 5% CO2 cell incubator. 2) The drug was prepared as 30 mM stock solution with dimethyl sulfoxide (DMSO). Prior to use, the stock solution was diluted 3 times with DMSO, and then further diluted as 3-fold gradient to obtain 9 concentration gradients. Then, each concentration of compound was diluted 200 times with the culture solution (ensuring that the DMSO concentration in the culture system was 0.1%), and two replicate wells were set for each concentration. 20 μL of diluted compound solution was added to the cell culture well (with final concentrations of 10 μM, 3.3 μM. 1.1 μM . . . ), and the plate was gently shaken to mix. In addition, 3 negative control wells containing only cells and 3 blank control wells containing only culture medium were included (6 wells were each added 20 μL DMSO diluted 200 times with culture medium). 2. Result detection: (1) After culturing for 6 days, 10 μL CCK-8 was added to each well, and the plate was continually cultured in a 37° C., 5% CO2 cell incubator for 2.5 h. (2) The absorbance (OD value) was detected at 450 nm using a multifunctional microplate reader. (3) The data were analyzed by Dose-response-inhibition equation in the software GraphPad Prism6, and the IC50 value was obtained.
(§2) Using the same method as Experimental example 2, CWR22RV1 cells were replaced with tumor cells in Table 3, and the IC50 (nM) of the compound according to the present invention against the activity of these tumor cells was tested and calculated.

MOLT-4 = experiment: Inhibition of proliferation of MOLT-4 cells; format: cell-based; settings: Homo sapiens; Leukemia cell line MOLT-4; read-out: IC50 against MOLT-4
Procedure: as §1, §2

MT-2 = experiment: Inhibition of proliferation of MT-2 cells; format: cell-based; settings: Homo sapiens, MT2; Leukemia cell line MT-2; read-out: IC50 against MT-2
Procedure: as §1, §2

KMS-11 = experiment: Inhibition of proliferation of KMS-11 cells; format: cell-based; settings: Homo sapiens; Multiple myeloma cell line KMS-11; read-out: IC50 against KMS-11
Procedure: as §1, §2

Z-138 = experiment: Inhibition of proliferation of Z-138 cells; format: cell-based; settings: Homo sapiens; Lymphoma cell line Z-138; read-out: IC50 against Z-138
Procedure: as §1, §2

CWR22RV1 cells = experiment: Inhibition of proliferation of CWR22RV1 cells (CCK-8); format: cell-based, human; settings: Homo sapiens, CWR22Rv1, 144 h, 6 days culture
Method in brief: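 CWR22RV1 cells (1500/well) were exposed to 9 three-fold compound concentrations (top final 10 μM, 0.1% DMSO) for 6 days. CCK-8 was added for 2.5 h, and absorbance was read at 450 nm. IC50 was fitted with a dose-response-inhibition equation.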

OPM-2 = experiment: Inhibition of proliferation of OPM-2 cells; format: cell-based; settings: Homo sapiens; Multiple myeloma cell line OPM-2; read-out: IC50 against OPM-2
Procedure: as §1, §2

histone acetylase p300 = target: T1, histone acetylase p300 (Homo sapiens, UniProt Q09472); experiment: Inhibitory activity on histone acetylase p300 (radioisotope FlashPlate); format: biochemical; settings: enzyme 0.2 nM, peptide substrate 600 nM, [3H]-Ac-CoA 250 nM; read-out: IC50 against P300
T1 construct: purchased BPS
T1 sequence (Q09472 whole entry): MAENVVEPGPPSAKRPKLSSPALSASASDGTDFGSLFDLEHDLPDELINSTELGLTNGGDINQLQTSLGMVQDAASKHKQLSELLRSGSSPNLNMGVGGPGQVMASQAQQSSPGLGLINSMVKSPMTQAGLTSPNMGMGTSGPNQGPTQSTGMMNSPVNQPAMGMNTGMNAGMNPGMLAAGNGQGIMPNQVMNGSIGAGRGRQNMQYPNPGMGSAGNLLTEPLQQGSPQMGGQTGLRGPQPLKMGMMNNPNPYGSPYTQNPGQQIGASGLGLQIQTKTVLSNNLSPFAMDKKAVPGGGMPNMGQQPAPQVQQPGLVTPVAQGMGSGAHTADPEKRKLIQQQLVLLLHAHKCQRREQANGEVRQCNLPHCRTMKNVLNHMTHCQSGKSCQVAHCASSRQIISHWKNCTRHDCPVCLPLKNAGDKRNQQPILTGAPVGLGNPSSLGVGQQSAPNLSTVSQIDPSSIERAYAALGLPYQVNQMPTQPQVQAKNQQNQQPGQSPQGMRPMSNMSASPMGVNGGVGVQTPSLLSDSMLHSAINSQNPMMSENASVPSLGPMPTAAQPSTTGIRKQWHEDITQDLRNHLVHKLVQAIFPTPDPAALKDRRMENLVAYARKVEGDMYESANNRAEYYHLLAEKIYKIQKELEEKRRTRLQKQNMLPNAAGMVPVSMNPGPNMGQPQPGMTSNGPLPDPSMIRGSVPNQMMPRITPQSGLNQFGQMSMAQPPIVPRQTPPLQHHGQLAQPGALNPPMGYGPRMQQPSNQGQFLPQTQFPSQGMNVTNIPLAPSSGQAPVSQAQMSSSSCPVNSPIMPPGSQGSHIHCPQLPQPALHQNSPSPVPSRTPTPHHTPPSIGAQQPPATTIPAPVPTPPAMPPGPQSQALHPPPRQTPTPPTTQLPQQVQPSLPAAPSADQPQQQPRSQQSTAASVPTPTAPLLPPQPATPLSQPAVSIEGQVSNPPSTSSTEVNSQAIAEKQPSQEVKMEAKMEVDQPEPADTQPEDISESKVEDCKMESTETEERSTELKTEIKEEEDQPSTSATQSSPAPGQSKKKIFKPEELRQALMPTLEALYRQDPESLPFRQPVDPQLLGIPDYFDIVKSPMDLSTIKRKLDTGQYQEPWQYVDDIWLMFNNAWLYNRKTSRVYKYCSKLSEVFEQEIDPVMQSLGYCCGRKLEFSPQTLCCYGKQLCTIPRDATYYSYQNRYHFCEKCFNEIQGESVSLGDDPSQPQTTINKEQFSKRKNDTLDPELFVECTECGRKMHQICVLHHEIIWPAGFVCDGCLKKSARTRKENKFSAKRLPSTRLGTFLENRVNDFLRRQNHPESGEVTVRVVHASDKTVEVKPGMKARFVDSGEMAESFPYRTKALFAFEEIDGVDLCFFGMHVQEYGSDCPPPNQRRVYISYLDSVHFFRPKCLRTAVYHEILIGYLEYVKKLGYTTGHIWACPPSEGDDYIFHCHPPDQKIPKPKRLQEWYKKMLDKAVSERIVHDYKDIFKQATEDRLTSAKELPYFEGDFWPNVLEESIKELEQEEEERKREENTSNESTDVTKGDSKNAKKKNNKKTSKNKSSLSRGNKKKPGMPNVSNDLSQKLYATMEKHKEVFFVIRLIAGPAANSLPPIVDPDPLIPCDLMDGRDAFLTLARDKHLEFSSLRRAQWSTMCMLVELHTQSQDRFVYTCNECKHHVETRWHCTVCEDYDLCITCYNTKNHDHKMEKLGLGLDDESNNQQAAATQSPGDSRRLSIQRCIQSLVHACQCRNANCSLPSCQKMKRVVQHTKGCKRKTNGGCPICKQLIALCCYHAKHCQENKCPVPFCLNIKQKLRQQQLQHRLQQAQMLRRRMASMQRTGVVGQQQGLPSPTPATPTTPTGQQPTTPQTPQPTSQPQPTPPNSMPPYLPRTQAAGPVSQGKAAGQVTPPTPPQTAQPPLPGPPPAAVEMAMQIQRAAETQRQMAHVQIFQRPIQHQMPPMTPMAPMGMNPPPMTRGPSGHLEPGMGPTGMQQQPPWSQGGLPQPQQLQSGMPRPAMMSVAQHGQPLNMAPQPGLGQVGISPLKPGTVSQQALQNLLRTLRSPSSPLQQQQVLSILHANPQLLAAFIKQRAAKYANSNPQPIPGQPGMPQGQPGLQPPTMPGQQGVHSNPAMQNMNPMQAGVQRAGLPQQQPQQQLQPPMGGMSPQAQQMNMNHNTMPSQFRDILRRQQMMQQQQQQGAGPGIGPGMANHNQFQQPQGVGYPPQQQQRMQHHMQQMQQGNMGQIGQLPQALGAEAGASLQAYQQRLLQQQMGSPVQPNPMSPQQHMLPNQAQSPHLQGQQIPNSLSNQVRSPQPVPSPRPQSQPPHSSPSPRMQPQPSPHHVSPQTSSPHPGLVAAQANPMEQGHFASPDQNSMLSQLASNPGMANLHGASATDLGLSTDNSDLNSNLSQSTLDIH
Excerpt: Using the radioisotope FlashPlate technology, the half inhibitory concentration (IC50) of the compound according to the present invention was detected against histone acetylase p300 (purchased from BPS). […] Under the catalysis of histone acetylase p300, [3H]—Ac group in the isotope-labeled [3H]-Ac-CoA was transferred to the biotinylated histone polypeptide substrate (purchased from GL Biochem Ltd.), and then the biotinylated histone peptide substrate bound to the streptavidin on the FlashPlate board, so that the isotope was close enough to the FlashPlate board. Thus, the radiation energy of isotope could convert the scintillation fluid coated on the FlashPlate board into photons, that was able to be detected. Detailed procedures were as follows:
• 1× reaction buffer: 50 mM Tris-HCl, pH 7.5; 0.01% Tween-20 • Reaction stop solution: 750 μM Ac-CoA solution
Each test compound was dissolved into 10 mM with 100% DMSO, and then each compound was diluted to the desired concentration in Echo 384-well plate. […] 200 nl of 100% DMSO was transferred into the well as the negative control.
p300 was added to 1× reaction buffer to form a 2× enzyme solution (the final concentration of enzyme being 0.2 nM).
The peptide substrate and [3H]-Ac-CoA were added to the 1-fold reaction buffer, to form a 2-fold substrate solution (the final concentration of the substrate being 600 nM and 250 nM, respectively).
10 μl of 2-fold enzyme solution was added to the wells of 384-well reaction plate. […] The plate was centrifuged at 1000 rpm for 1 min and incubated at room temperature for 15 min.
10 μl of 2-fold substrate solution was added to each well of 384-well reaction plate. The plate was centrifuged at 1000 rpm for 1 min, and then reacted at 25° C. for 60 min.
10 μl of reaction stop solution was added to each well of 384-well reaction plate to stop the reaction. 25 μL solution was collected from each well of the test plate and transferred to Flashplate, that was placed at room temperature for 1 h. Then, Flashplate plate was washed three times with 0.1% Tween-20 solution.
4) Reading Data with MicroBeta 2
The data were copied from Microbeta 2. […] The maximum value is the conversion rate of the control DMSO, and the minimum value is the conversion rate of the control without enzyme activity.
The data were imported into Graph Pad Prism5, and the formula “log(inhibitor) vs. response−Variable slope” was used to perform curve fitting, to obtain the half inhibitory concentration (IC50).

EVSA-T = experiment: Inhibition of proliferation of EVSA-T cells; format: cell-based; settings: Homo sapiens; Breast cancer cell line EVSA-T; read-out: IC50 against EVSA-T
Procedure: as §1, §2

OCI-AML3 = experiment: Inhibition of proliferation of OCI-AML3 cells; format: cell-based; settings: Homo sapiens, OCI-AML-3; Leukemia cell line OCI-AML3; read-out: IC50 against OCI-AML3
Procedure: as §1, §2

KMS-12-PE = experiment: Inhibition of proliferation of KMS-12-PE cells; format: cell-based; settings: Homo sapiens; Lymphoma cell line KMS-12-PE; read-out: IC50 against KMS-12-PE
Procedure: as §1, §2

[1] = read-out: IC50 against CWR22RV1 cells
[2] = read-out: IC50 against CWR22RV1 cells (text)

IC50 (LNCAP)	IC50 (MOLT-4)	IC50 (histone acetylase p300)	IC50 (OCI-AML3)	Structure (SMILES)	IC50 (MT-2)	IC50 (KMS-11)	IC50 (Z-138)	IC50 (CWR22RV1 cells; [1])	IC50 (CWR22RV1 cells; [2])	IC50 (OPM-2)	IC50 (EVSA-T)	IC50 (KMS-12-PE)
≤ 500 nM	≤ 500 nM	1.6 nM	≤ 500 nM	CNC(=O)Nc1ccc2c(c1)CC[C@@]21OC(=O)N(CC(=O)N2C(C)CC[C@H]2c2cc(F)c(F)c(F)c2)C1=O (stereo in doubt) [Example 205, 1-((R)-3′-(2-((2S,5R)-2-(3,4,5-trifluorophenyl)-5-methylpyrrolidin-1-yl)-2-oxoethyl)-2′,4′-dioxo-2,3-dihydrospiro[indene-1,5′-oxazolidine]-5-yl)-3-methylurea]	500 to 2000 nM	≤ 500 nM	≤ 500 nM	≤ 500 nM	≤ 500 nM	≤ 500 nM	500 to 2000 nM	500 to 2000 nM
≤ 500 nM	≤ 500 nM	1.6 nM	≤ 500 nM	CNC(=O)Nc1ccc2c(c1)CC[C@@]21OC(=O)N(CC(=O)N2[C@@H](C)CC[C@H]2c2ccc(F)c(F)c2)C1=O [Example 201]	500 to 2000 nM	≤ 500 nM	≤ 500 nM	≤ 500 nM	≤ 500 nM	≤ 500 nM	500 to 2000 nM	500 to 2000 nM
≤ 500 nM	≤ 500 nM	1.9 nM	≤ 500 nM	CNC(=O)Nc1cc2c(cc1F)[C@@]1(CC2)OC(=O)N(CC(=O)N2[C@@H](C)CC[C@H]2c2ccc(F)c(F)c2)C1=O [Example 389, 1-((R)-3′-(2-((2S,5S)-2-(3,4-difluorophenyl)-5-methylpyrrolidin-1-yl)-2-oxoethyl)-6-fluoro-2′,4′-dioxo-2,3-dihydrospiro[indene-1,5′-oxazolidine]-5-yl)-3-methylurea]	≤ 500 nM	≤ 500 nM	≤ 500 nM	≤ 500 nM	≤ 500 nM	≤ 500 nM	500 to 2000 nM	500 to 2000 nM
